Laboratory results reported in patent US20240238212A1, “LIPID COMPOUNDS AND LIPID NANOPARTICLE COMPOSITIONS” (SUZHOU ABOGEN BIOSCIENCES CO., LTD., priority 2022, published 2024).

Assays:
[1] = Lipid nanoparticle size and polydispersity by dynamic light scattering; assay type: physicochemical; details: LNP comprising the compound, hEPO mRNA; for Size (nm): cationic lipid/DSPC/cholesterol/PEG-lipid 50:10:38.5:1.5
Method: (§1) Briefly, a cationic lipid provided herein, DSPC, cholesterol, and PEG-lipid were solubilized in ethanol at a molar ratio of 50:10:38.5:1.5, and mRNA were diluted in 10 to 50 mM citrate buffer, pH=4. The LNPs were prepared at a total lipid to mRNA weight ratio of approximately 10:1 to 30:1 by mixing the ethanolic lipid solution with the aqueous mRNA solution at a volume ratio of 1:3 using a microfluidic apparatus, total flow rate ranging from 9-30 mL/min. Ethanol were thereby removed and replaced by DPBS using dialysis. Finally, the lipid nanoparticles were filtered through a 0.2 μm sterile filter.
(§2) Lipid nanoparticle size were determined by dynamic light scattering using a Malvern Zetasizer Nano ZS (Malvern UK) using a 173° backscatter detection mode. The encapsulation efficiency of lipid nanoparticles were determined using a Quant-it Ribogreen RNA quantification assay kit (Thermo Fisher Scientific, UK) according to the manufacturer's instructions.

[2] = Encapsulation efficiency of lipid nanoparticles (Quant-it Ribogreen RNA assay); assay type: physicochemical; details: LNP comprising the compound, hEPO mRNA
Method: as §1, §2

[3] = Apparent pKa of LNP formulations (TNS fluorescence assay); assay type: physicochemical; details: LNP formulation, TNS assay (Table 2)
Method: As reported in literature, the apparent pKa of LNP formulations correlates with the delivery efficiency of LNPs for nucleic acids in vivo. The apparent pKa of each formulation was determined using an assay based on fluorescence of 2-(p-toluidino)-6-napthalene sulfonic acid (TNS). LNP formulations comprising of cationic lipid/DSPC/cholesterol/DMG-PEG (50/10/38.5/1.5 mol %) in PBS were prepared as described above. TNS was prepared as a 300 μM stock solution in distilled water. LNP formulations were diluted to 0.1 mg/mL total lipid in 3 mL of buffered solutions containing 50 mM sodium citrate, 50 mM sodium phosphate, 50 mM sodium borate, and 30 mM sodium chloride where the pH ranged from 3 to 9. An aliquot of the TNS solution was added to give a final concentration of […] and following vortex mixing fluorescence intensity was measured at room temperature in a Molecular Devices Spectramax iD3 spectrometer using excitation and mission wavelengths of 325 nm and 435 nm. A sigmoidal best fit analysis was applied to the fluorescence data and the pKa value was measured as the pH giving rise to half-maximal fluorescent intensity.

[4] = system: human erythropoietin (hEPO) mRNA expression; assay: Animal Study 1: hEPO mRNA LNPs i.v. in mice, serum EPO by ELISA; assay type: in vivo; details: female ICR mice, 0.5 mg/kg tail vein injection, blood e.g. 6 hours post administration; relative to MC3 LNP
Method: Lipid nanoparticles comprising compounds in the following table encapsulating human erythropoietin (hEPO) mRNA were systemically administered to 6-8 week old female ICR mice (Xipuer-Bikai, Shanghai) at 0.5 mg/kg dose by tail vein injection and mice blood were sampled at specific time points (e.g., 6 hours) post administration. In addition to the aforementioned tested groups, lipid nanoparticles comprising dilinoleylmethyl-4-dimethylaminobutyrate (DLin-MC3-DMA, usually abbreviated to MC3) encapsulating hEPO mRNA were similarly administered at the same dose to age and gender comparative groups of mice as a positive control.
Mice were euthanized by CO2 overdoses after the last sampling time point. Serum were separated from total blood by centrifugation at 5000 g for 10 minutes at 4 T, snap-frozen and stored at −80 T for analysis. ELISA assay were carried out using a commercial kit (DEP00, R&D systems) according to manufacturer's instructions.
Characteristics of tested lipid nanoparticles, including EPO expression levels over MC3 measured from the tested group are listed in the table below.

Structure (SMILES)	Polydispersity [1]	Size (nm) [1]	Encapsulation efficiency [2]	Apparent pKa [3]	EPO expression over MC3 [4]
CCCCCCCCCCCCCCCCCC(=O)OCCCCCCN(CCCCC(COC(=O)CCCCCCC)COC(=O)CCCCCCC)C1CCC(O)CC1 (stereo not drawn) [Compound 36]	0.1156	78.92 nm	85.90%	6.867	C (≥0.1 and <1)
CCCCC/C=C\C/C=C\CCCCCCCC(=O)OCCCCCCN(CCCCC(COC(=O)CCCCCCC)COC(=O)CCCCCCC)C1CCC(O)CC1 (stereo not drawn) [Compound 37]	0.005279	93.13 nm	88.34%	6.69	A (≥2)
CCCCCCCC/C=C\CCCCCCCC(=O)OCCCCCCN(CCCCC(COC(=O)CCCCCCC)COC(=O)CCCCCCC)C1CCC(O)CC1 (stereo not drawn) [Compound 38]	0.06385	100.3 nm	87.69%	6.799	B (≥1 and <2)
CCCCCCCC/C=C\CCCCCCCC(=O)OCCCCCCN(CCCCC(COC(=O)CCCCCCC)COC(=O)CCCCCCC)C1CC(O)C1 (stereo not drawn) [Compound 39]	0.002	84.01 nm	89.27%	6.801	C (≥0.1 and <1)
CCCCC/C=C\C/C=C\CCCCCCCC(=O)OCCCCCCN(CCCCC(COC(=O)CCCCCCC)COC(=O)CCCCCCC)CCCNc1c(N(C)C)c(=O)c1=O [Compound 42]	0.0478	77.38 nm	95.23%	6.657	C (≥0.1 and <1)
CCCCCCCC(=O)OCC(CCCCN(CCCCC(COC(=O)CCCCCCC)COC(=O)CCCCCCC)[C@H]1C[C@@H](O)C1)COC(=O)CCCCCCC [Compound 43]	0.057	64.77 nm	89.21%	6.653	A (≥2)
CCCCCCCC(=O)OCC(CCCCN(CCCCC(COC(=O)CCCCCCC)COC(=O)CCCCCCC)[C@@H]1CC[C@H](O)C1)COC(=O)CCCCCCC [Compound 47]	0.039	91.46 nm	89.99%	6.767	A (≥2)

Second part, led by results:

Polydispersity [1]	Size (nm) [1]	Encapsulation efficiency [2]	Apparent pKa [3]	Structure (SMILES)	EPO expression over MC3 [4]
0.077	68.48 nm	89.90%	6.593	CCCCCCCC(=O)OCC(CCCCN(CCCCCNc1c(N(C)C)c(=O)c1=O)CCCCC(COC(=O)CCCCCCC)COC(=O)CCCCCCC)COC(=O)CCCCCCC [Compound 28]	C (≥0.1 and <1)
0.031	80.75 nm	86.98%	6.513	CCCCCCCC(=O)OCC(CCCCCCN(CCCCCO)CCCCCCC(COC(=O)CCCCCCC)COC(=O)CCCCCCC)COC(=O)CCCCCCC [Compound 29]	A (≥2)
0.073	72.36 nm	88.17%	6.221	CCCCCCCC(=O)OCC(CCCCN(CCCCC(COC(=O)CCCCCCC)COC(=O)CCCCCCC)CCCNc1c(N(CC)CC)c(=O)c1=O)COC(=O)CCCCCCC [Compound 31]	A (≥2)
0.04761	67.6 nm	89.70%	6.34	CCCCCCCC(=O)OCC(CCCCN(CCCCC(COC(=O)CCCCCCC)COC(=O)CCCCCCC)CCCNc1c(N(C)CC)c(=O)c1=O)COC(=O)CCCCCCC [Compound 34]	A (≥2)
0.05652	71.02 nm	89.19%	6.138	CCCCCCCC(=O)OCC(CCCCN(CCCCC(COC(=O)CCCCCCC)COC(=O)CCCCCCC)CCCNc1c(N(C)CCC)c(=O)c1=O)COC(=O)CCCCCCC [Compound 35]	A (≥2)
